Inhibition and IC50 data for two compounds are collected here from ChEMBL document CHEMBL3351424, “Reversible ketomethylene-based inhibitors of human neutrophil proteinase 3” (J Med Chem, 2014).

The term inhibition denotes the relative decrease from the control value, in per cent. For orientation: IC50 means the concentration at which inhibition is half-maximal.

The source made the active and inactive calls. The rule behind the calls is not given here. Starred links: 1 amine or outer side, 2 acyl side, 3 side chain; linkers in the order of their positions; H or OH if unused. Non-standard residues stand in square brackets, D forms with d. Residues, ends and D or L forms follow the SMILES beside them. *: point of attachment. EDDnp = O=[N+]([O-])c1ccc(NCCN*)c([N+](=O)[O-])c1; X1 = CCC[C@H](N[*:1])C(=O)C[C@@H](C)C(=O)[*:2]; 2Abz = Nc1ccccc1C(=O)O

For experiment [1], the target named is T1, Neutrophil elastase (Homo sapiens) (UniProt P08246).
T1 sequence (whole entry): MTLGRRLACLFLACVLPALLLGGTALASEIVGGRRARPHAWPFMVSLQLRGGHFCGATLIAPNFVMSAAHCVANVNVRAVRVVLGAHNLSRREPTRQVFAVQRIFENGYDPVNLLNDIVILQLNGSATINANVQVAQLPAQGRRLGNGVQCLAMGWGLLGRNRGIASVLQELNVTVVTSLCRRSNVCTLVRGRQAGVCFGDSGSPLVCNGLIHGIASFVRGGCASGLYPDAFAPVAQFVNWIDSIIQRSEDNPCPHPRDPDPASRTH
Briefly: Inhibition of human NE using MeOSuc-AAPV-AMC as substrate after 30 mins by fluorescence assay.

The target in another experiment is T2, Myeloblastin (Homo sapiens, UniProt P24158).
T2 sequence (P24158 whole entry): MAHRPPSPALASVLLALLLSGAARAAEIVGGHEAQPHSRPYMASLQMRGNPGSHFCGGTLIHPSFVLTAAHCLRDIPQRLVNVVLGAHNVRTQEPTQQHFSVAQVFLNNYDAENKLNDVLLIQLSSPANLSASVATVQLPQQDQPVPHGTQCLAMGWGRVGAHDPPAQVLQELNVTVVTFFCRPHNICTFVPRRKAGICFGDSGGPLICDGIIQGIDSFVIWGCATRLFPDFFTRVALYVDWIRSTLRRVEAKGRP
The experiment in a line: Inhibition of human PR3 using D-DY-FRET as substrate after 30 mins by HPLC analysis.

For experiment [2], the target named is T3, Myeloblastin (Homo sapiens) (UniProt P24158).
T3 sequence (whole entry): T2 sequence (P24158 whole entry)
The experiment in a line: Inhibition of human PR3 using N-EY-FRET as substrate at 6 uM after 20 mins by fluorescence assay.

Experiment [3] concerns the target T1, Neutrophil elastase (Homo sapiens). Briefly: Inhibition of human NE using MeOSuc-AAPV-AMC as substrate at 6 uM after 30 mins by fluorescence assay.

As to `CCC[C@H](NC(=O)[C@H](CO)NC(=O)[C@H](C)NC(=O)[C@@H](NC(=O)c1ccccc1N)C(C)C)C(=O)C[C@@H](C)C(=O)N[C@@H](CCC(=O)O)C(=O)N[C@@H](CCCNC(=N)N)C(=O)N[C@@H](CCC(N)=O)C(=O)NCCNc1ccc([N+](=O)[O-])cc1[N+](=O)[O-]` (H-[2Abz]VAS[X1]ERQ-EDDnp), the inhibition entry in experiment [1] is “inactive”.
Turning to `O=S(=O)(F)Cc1ccccc1` [PHENYLMETHYLSULFONYLFLUORIDE], the IC50 against Myeloblastin was 19.2 µM. The inhibition in experiment [2] and in experiment [3] was 20% each time.
